Holding throughout (assay type): binding
The target of experiment [1] is T1, MERTK (Homo sapiens, UniProt Q12866).
T1 construct: purchased DiscoveRx KINOMEscan
T1 sequence (Q12866 21-999): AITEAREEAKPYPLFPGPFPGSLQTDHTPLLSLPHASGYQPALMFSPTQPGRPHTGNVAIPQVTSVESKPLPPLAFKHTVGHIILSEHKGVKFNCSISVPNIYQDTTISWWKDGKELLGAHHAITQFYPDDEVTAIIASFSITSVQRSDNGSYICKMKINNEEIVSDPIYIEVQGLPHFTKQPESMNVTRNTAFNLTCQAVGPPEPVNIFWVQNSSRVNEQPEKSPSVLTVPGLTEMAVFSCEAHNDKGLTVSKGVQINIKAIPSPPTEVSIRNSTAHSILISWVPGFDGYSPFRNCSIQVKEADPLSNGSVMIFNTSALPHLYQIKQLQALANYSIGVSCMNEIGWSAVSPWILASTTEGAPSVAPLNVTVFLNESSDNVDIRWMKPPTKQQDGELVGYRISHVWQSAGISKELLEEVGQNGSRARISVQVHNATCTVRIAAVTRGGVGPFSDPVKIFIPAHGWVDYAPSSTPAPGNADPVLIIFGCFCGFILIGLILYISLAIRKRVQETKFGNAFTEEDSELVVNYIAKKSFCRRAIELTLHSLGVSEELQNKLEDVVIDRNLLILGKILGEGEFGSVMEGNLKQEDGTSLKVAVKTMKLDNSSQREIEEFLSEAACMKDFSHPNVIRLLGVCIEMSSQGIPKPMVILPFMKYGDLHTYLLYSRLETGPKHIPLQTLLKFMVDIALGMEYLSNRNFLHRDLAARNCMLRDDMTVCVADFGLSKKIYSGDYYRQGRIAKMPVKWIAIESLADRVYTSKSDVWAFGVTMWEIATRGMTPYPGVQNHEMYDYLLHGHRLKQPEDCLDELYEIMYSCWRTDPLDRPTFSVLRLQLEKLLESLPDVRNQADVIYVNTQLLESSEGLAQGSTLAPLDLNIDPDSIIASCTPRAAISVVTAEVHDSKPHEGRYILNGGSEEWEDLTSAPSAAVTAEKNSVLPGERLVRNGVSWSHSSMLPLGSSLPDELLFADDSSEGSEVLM
The following applies: for remaining binding at 10 µM: read-out: Percent control.

In experiment [2] the target is T2, TEC (Homo sapiens, UniProt P42680).
T2 construct: purchased DiscoveRx (KINOMEscan service)
T2 sequence (P42680 1-631): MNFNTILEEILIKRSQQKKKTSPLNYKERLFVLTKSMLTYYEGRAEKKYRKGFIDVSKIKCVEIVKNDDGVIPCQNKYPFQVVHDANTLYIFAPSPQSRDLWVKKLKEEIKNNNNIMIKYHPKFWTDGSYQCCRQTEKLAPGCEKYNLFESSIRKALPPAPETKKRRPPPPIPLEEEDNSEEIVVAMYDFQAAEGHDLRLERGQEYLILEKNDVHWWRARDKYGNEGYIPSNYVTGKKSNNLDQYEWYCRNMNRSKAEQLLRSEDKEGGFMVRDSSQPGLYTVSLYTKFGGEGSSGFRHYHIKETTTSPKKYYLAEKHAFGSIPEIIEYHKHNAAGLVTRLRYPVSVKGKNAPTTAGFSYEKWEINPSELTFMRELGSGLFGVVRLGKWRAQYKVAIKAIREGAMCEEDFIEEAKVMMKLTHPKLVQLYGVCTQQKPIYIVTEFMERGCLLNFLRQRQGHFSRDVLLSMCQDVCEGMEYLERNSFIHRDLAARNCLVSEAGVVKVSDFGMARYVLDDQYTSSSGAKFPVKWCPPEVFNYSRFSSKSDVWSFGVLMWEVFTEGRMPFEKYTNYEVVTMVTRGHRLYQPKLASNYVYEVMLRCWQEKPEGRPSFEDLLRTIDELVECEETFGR
The following applies: for remaining binding at 10 µM: read-out: Percent control.

The target in experiment [3] is T3, TNK1 (Homo sapiens, UniProt Q13470).
T3 construct: purchased DiscoveRx (KINOMEscan service)
T3 sequence (Q13470 1-666): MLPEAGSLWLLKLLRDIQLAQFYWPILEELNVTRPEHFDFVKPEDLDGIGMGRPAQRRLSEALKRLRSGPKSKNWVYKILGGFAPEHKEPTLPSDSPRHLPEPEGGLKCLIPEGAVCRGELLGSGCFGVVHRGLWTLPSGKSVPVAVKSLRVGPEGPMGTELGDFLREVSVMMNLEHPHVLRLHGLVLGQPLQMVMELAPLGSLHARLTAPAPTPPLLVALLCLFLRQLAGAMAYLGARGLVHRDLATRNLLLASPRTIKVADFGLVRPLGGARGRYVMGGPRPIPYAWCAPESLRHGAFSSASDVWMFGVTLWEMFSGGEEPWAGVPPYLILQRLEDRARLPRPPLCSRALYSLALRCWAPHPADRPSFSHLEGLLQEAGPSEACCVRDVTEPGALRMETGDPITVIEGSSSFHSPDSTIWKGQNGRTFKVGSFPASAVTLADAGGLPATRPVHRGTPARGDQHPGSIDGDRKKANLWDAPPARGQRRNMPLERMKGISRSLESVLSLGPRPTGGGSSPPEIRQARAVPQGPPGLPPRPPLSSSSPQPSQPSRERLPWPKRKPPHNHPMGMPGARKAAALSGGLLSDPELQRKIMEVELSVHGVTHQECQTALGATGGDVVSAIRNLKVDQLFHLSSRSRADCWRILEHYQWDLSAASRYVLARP
The following applies: for remaining binding at 10 µM: read-out: Percent control; for Percent control: 10 μM.

Molecules are shown by their SMILES. Read-outs that look alike come from different tables or passages of the source.

Consider six compounds from paper PMC4858680, “A platinum-based hybrid drug design approach to circumvent acquired resistance to molecular targeted tyrosine kinase inhibitors” (Scientific Reports, 2016).

On to `C#Cc1cccc(Nc2ncnc3cc(OCCOC)c(OCCOC)cc23)c1` [Erlotinib], for which the remaining binding at 10 µM worked out at 8.9% in experiment [1], 100% in experiment [2] and 5.9% in experiment [3].
As for `Cc1ccc(NC(=O)c2ccc(CN3CCN(C)CC3)cc2)cc1Nc1nccc(-c2cccnc2)[n+]1[Pt-2]1([Cl])[NH2+]C2CCCCC2[NH2+]1` (stereo not drawn) [1b, oxaliplatin-imatinib], the Percent control in experiment [1] (MERTK, 10 μM) was determined as 100%; in experiment [2] (TEC, 10 μM) it was 100%; in experiment [3], 90%.
Regarding `COc1cc2c(Nc3ccc(Br)cc3F)ncnc2cc1OCC1CCN(C)CC1` [Vandetanib, reference compound], the remaining binding at 10 µM in experiment [1] (MERTK, 10 μM) was found to be 12.3%; in experiment [2] (TEC, 10 μM), 100%; in experiment [3], 100%.
For `COc1cc2c(Nc3ccc(Br)cc3F)[n+]([Pt-2]3([Cl])[NH2+]C4CCCCC4[NH2+]3)cnc2cc1OCC1CCN(C)CC1` (stereo not drawn) [3b, oxaliplatin-vandetanib], the Percent control in experiment [1] (MERTK, 10 μM) worked out at 17%; in experiment [2] (TEC, 10 μM) it was 100%; in experiment [3], 90%.
For `C#Cc1cccc(Nc2c3cc(OCCOC)c(OCCOC)cc3nc[n+]2[Pt@SP2-2]([NH3+])([NH3+])[Cl])c1` [2a, cisplatin-erlotinib], in that order: 100%, 72% and 85%.
For the compound `Cc1ccc(NC(=O)c2ccc(CN3CCN(C)CC3)cc2)cc1Nc1nccc(-c2cccnc2)n1` [Imatinib, reference compound], the Percent control in experiment [1] (MERTK, 10 μM) worked out at 100%; in experiment [2] (TEC, 10 μM), 100%; in experiment [3] it was 100%.
